Among the data in ChEMBL document CHEMBL4765354, “Structure guided design of potent indole-based ATX inhibitors bearing hydrazone moiety with tumor suppression effects” (Eur J Med Chem, 2020) are IC50 values, retold here.

pIC50: −log10 of the molar value.

For one experiment, the target named is Autotaxin (Homo sapiens, UniProt Q13822). Description: Inhibition of human C-terminal His6-tagged ATX beta expressed in Sf9 insect cells using FS-3 as substrate preincubated for 45 mins followed by substrate addition and measured at 1 min interval for 30 mins by fluorescence assay.
The subject of another experiment is MCF7. Briefly: Antiproliferative activity against human MCF7 cells measured after 72 hrs by MTT assay. Particulars: MCF7, 72 h. It counts as functional, cell-based. Background: Tetrazolium assays rely on reduction of a dye to a coloured formazan, in cell work by metabolically active cells.
The next experiment concerns MDA-MB-231. Briefly: Antiproliferative activity against human MDA-MB-231 cells measured after 72 hrs by MTT assay. It is filed as functional, cell-based. Particulars: MDA-MB-231, 72 h.
Another experiment deals with A549. Description: Antiproliferative activity against human A549 cells measured after 72 hrs by MTT assay. It counts as functional, cell-based. The conditions noted are these: A549, 72 h.
A further experiment has as its system NCI-H2228. Briefly: Antiproliferative activity against human NCI-H2228 cells measured after 72 hrs by MTT assay. It counts as functional, cell-based. The conditions noted are these: NCI-H2228, 72 h.

On to `CCn1cc(/C(=N/Nc2nc3ccccc3s2)C(F)(F)F)c2cc(-c3nc(CN4CCC(O)CC4)cs3)ccc21`, for which the pIC50 (in general, the IC50 on a negative log10 scale, so that one unit is a factor of ten) against Autotaxin was 8.68; with MCF7, 6.37; in the experiment with MDA-MB-231, 6.51; with A549 it was 4.96; in the experiment on NCI-H2228, 5.14.
As to `COc1ccc(-c2nc(N/N=C(/c3c(C)[nH]c4cc(F)c(N5CCN(CCN(C)C)CC5)cc34)C(F)(F)F)sc2C#N)cc1`, the pIC50 at Autotaxin is 6.78; in the experiment on MCF7 it was 5.54; with MDA-MB-231, 5.91; in the experiment with A549, under 4.82; in the experiment on NCI-H2228, 4.94.
Take `Cn1cc(/C(=N/Nc2nc(-c3ccc(Cl)cc3)c(C#N)s2)C(F)(F)F)c2cc(-c3nc(CN4CCOCC4)cs3)ccc21`: the pIC50 against Autotaxin was 5.53; in the experiment on MCF7, 5.49; in the experiment with MDA-MB-231 it was 5.57; with A549 it was 5.03; in the experiment on NCI-H2228, under 4.82.
The like results for `Cn1cc(/C(=N/Nc2nc(-c3ccc(F)cc3)c(C#N)s2)C(F)(F)F)c2cc(-c3nc(CN4CCC(O)CC4)cs3)ccc21` were, in that order, 5.76, 5.32, 5.35, 5.04 and 5.02.
The like results for `Cc1[nH]c2cc(F)c(N3CCN(CCN(C)C)CC3)cc2c1/C(=N/Nc1nc(-c2ccc(F)cc2)c(C#N)s1)C(F)(F)F` were, in that order, 7.72, 6.00, 6.10, 4.87 and under 4.82.
